In brackets after ≈: the same amount, converted by molar mass.
Legend:
[1] = test system: H2O2-stimulated PC 12 cell lines; experiment: Protection against H2O2-induced oxidative damage (CCK-8); type: cell-based, rat; conditions: for anti-oxidant capacity compared with curcumin: 10 μM; for anti-oxidant capacity compared with curcumin / cell survival rate (anti-oxidant): H2O2-stimulated PC 12; for Cell viability / viability at 5 µM / viability at 10 µM / viability at 20 µM: H2O2-induced oxidative damage, PC 12, H2O2 group 49.69 ± 1.37, control 100; for Cell viability: in % (unit assumed); for cell survival rate (anti-oxidant): at 10 μM; for viability at 5 µM / viability at 10 µM / viability at 20 µM: Rattus norvegicus; for viability at 5 µM: PC-12, Dose 5 μM; for viability at 10 µM: PC-12, Dose 10 μM; for viability at 20 µM: PC-12, Dose 20 μM
Experimental: PC 12 cells were seeded in 96-well plates at a density of 8000 cells/well and incubated overnight. […] After incubating under the same conditions for 24 h, 10 μL CCK-8 solution was added to each well. After 2 h incubation, the absorbance of each well was measured at 450 nm using a microplated reader (Multiskan MK-3, Thermo, Waltham, MA, USA).

[2] = test system: PC 12 cell lines; experiment: Radiation protection in vitro (CCK-8); type: cell-based, rat; conditions: for radiation protection capacity: 10 μM, versus radiation group; for viability at 5 µM / viability at 10 µM / viability at 20 µM: Rattus norvegicus; for viability at 5 µM: PC-12, Dose 5 μM; for viability at 5 µM / viability at 10 µM / Cell viability / viability at 20 µM: radiation 8.0 Gy, PC 12, radiation group 50.22 ± 1.08; for viability at 10 µM: PC-12, Dose 10 μM; for Cell viability: in % (unit assumed); for viability at 20 µM: PC-12, Dose 20 μM
Experimental: The rat adrenal pheochromocytoma cells (PC 12) were used for in vitro studies. A Cell Counting Kit-8 (CCK-8, Applygen Technologies Co., Ltd., Beijing, China) assay was used to determine cell viability. […] Cells were irradiated with dose of 8.0 Gy at a dose rate of 0.8 Gy/min. Then, 10 μL CCK-8 solution was added to all the wells. After 4 h incubation, the absorbance at 450 nm of each well was measured in a multiscan photometer.

[3] = test system: LPS-stimulated RAW264.7 cell lines; experiment: LPS-induced NO production (Griess) in RAW264.7; type: cell-based, murine; conditions: for The production of NO: LPS group 49.86 ± 0.62, control 1.20 ± 0.38; for inhibitory activity against NO production compared with curcumin: 10 μM
Experimental: RAW 264.7 cells were plated in 96-well plates at a density of 1 × 10^4 cells/well and incubated overnight at 37 °C under 5% CO2. […] Dexamethasone (Solarbio, D8040, Beijing, China) was used as the positive control. Then, 24 h later, NO production was determined by measuring the nitrite content using Griess reagents. Fifty microliters of culture supernatants were transferred to 96-well plates and mixed with 50 μL Griess reagent A. After incubation at room temperature for 5 min, the samples were mixed with an equal volume Griess reagent B for another 5 min. The absorbance of each mixture at 540 nm was measured using a microplate reader.

[4] = Aqueous solubility determination by UV spectrophotometer; type: physicochemical; conditions: water, thermodynamic from solid, saturated solution concentration
Experimental: A UV spectrophotometer was used to test the aqueous solubility of target compounds. Each compound to be tested was prepared into solutions with concentrations of 0.2 M, 0.1 M, 0.05 M, 0.025 M, 0.0125 M, 0.00625 M, and 0.003125 M. The optical density (OD) values of the prepared solutions were measured using an ultraviolet spectrophotometer, and concentration–OD-value standard curves were drawn for each compound to be tested. The saturated solutions of the target compounds were diluted by 5000 times and detected using an ultraviolet spectrophotometer to measure the OD values, respectively. The measured OD values were substituted into the corresponding concentration-OD value standard curve to calculate the diluted concentrations, which were multiplied by 5000 to obtain the saturated solution concentrations of the target compounds.

[5] = Dose 5 μM, LPS-stimulated RAW264.7
[6] = Dose 10 μM, LPS-stimulated RAW264.7
[7] = Dose 15 μM, LPS-stimulated RAW264.7

Structure (SMILES): CCOc1cc(/C=C/C(=O)CC(=O)/C=C/c2cc(CN(C)C)c(O)c(OC)c2)ccc1O [Compound 1a]
- anti-oxidant capacity compared with curcumin [1]: better anti-oxidant capacity
- Cell viability ([1]; Dose 5 μM): 66.25 ± 1.36
- Cell viability ([1]; Dose 10 μM): 80.18 ± 1.38
- Cell viability ([1]; Dose 20 μM): 89.36 ± 1.63
- radiation protection capacity [2]: a certain degree of radiation protection capacity
- viability at 5 µM [2]: 60 ± 5.39%
- viability at 10 µM [2]: 62.9 ± 6.12%
- The production of NO [3, 5]: 44.93 ± 0.35
- The production of NO [3, 6]: 32.32 ± 1.94
- The production of NO [3, 7]: 5.77 ± 0.09
- solubility [4]: 201 mg/mL (≈ 457 mM)

Structure (SMILES): COc1cc(/C=C/C(=O)CC(=O)/C=C/c2cc(OC)c(O)c(OC)c2)cc(CN(C)C)c1O [Compound 2a]
- Cell viability ([1]; Dose 5 μM): 56.60 ± 0.54
- Cell viability ([1]; Dose 10 μM): 61.51 ± 1.77
- Cell viability ([1]; Dose 20 μM): 65.65 ± 1.31
- cell survival rate (anti-oxidant) [1]: 61%
- Cell viability ([2]; Dose 20 μM): 92.24 ± 6.04
- viability at 5 µM [2]: 57.7 ± 4.12%
- viability at 10 µM [2]: 61.6 ± 4.11%
- The production of NO [3, 5]: 41.89 ± 1.95
- The production of NO [3, 6]: 38.68 ± 0.96
- The production of NO [3, 7]: 36.24 ± 0.50
- solubility [4]: 148 mg/mL (≈ 325 mM)

Structure (SMILES): COc1cc(/C=C/C(=O)CC(=O)/C=C/c2ccc(O)cc2C)cc(CN(C)C)c1O [Compound 3a]
- Cell viability ([1]; Dose 5 μM): 61.60 ± 3.89
- Cell viability ([1]; Dose 10 μM): 72.94 ± 2.65
- Cell viability ([1]; Dose 20 μM): 86.90 ± 1.63
- viability at 5 µM [2]: 57.1 ± 3.05%
- viability at 10 µM [2]: 64.2 ± 0.94%
- viability at 20 µM [2]: 69.1 ± 2.51%
- inhibitory activity against NO production compared with curcumin [3]: better inhibitory activity
- The production of NO [3, 5]: 32.92 ± 2.00
- The production of NO [3, 6]: 16.27 ± 1.74
- The production of NO [3, 7]: 5.29 ± 0.97
- solubility [4]: 255 mg/mL (≈ 623 mM)

Structure (SMILES): COc1cc(/C=C/C(=O)CC(=O)/C=C/c2ccc(O)cc2F)cc(CN(C)C)c1O [Compound 4a]
- Cell viability ([1]; Dose 5 μM): 67.52 ± 3.31
- Cell viability ([1]; Dose 10 μM): 75.00 ± 2.39
- Cell viability ([1]; Dose 20 μM): 86.52 ± 5.31
- Cell viability ([2]; Dose 20 μM): 97.55 ± 3.44
- viability at 5 µM [2]: 56.4 ± 3.51%
- viability at 10 µM [2]: 61.5 ± 3.74%
- The production of NO [3, 5]: 31.54 ± 1.30
- The production of NO [3, 6]: 20.51 ± 1.88
- The production of NO [3, 7]: 9.45 ± 1.96
- solubility [4]: 314 mg/mL (≈ 760 mM)

Structure (SMILES): COc1cc(/C=C/C(=O)CC(=O)/C=C/c2ccc(O)c(Cl)c2)cc(CN(C)C)c1O [Compound 7a]
- Cell viability ([1]; Dose 5 μM): 54.89 ± 1.04
- Cell viability ([1]; Dose 10 μM): 62.07 ± 4.16
- Cell viability ([1]; Dose 20 μM): 79.65 ± 3.04
- cell survival rate (anti-oxidant) [1]: 62%
- viability at 5 µM [2]: 62.1 ± 1.39%
- viability at 10 µM [2]: 65.5 ± 2.03%
- viability at 20 µM [2]: 75.7 ± 2.05%
- inhibitory activity against NO production compared with curcumin [3]: better inhibitory activity
- The production of NO [3, 5]: 35.35 ± 1.59
- The production of NO [3, 6]: 16.83 ± 0.42
- The production of NO [3, 7]: 9.77 ± 0.63
- solubility [4]: 258 mg/mL (≈ 600 mM)

Structure (SMILES): COc1cc(/C=C/C(=O)CC(=O)/C=C/c2cc(C)c(O)c(C)c2)cc(CN(C)C)c1O [Compound 8a]
- anti-oxidant capacity compared with curcumin [1]: better anti-oxidant capacity
- Cell viability ([1]; Dose 5 μM): 74.54 ± 1.42
- Cell viability ([1]; Dose 10 μM): 81.49 ± 3.47
- Cell viability ([1]; Dose 20 μM): 87.62 ± 2.98
- radiation protection capacity [2]: a certain degree of radiation protection capacity
- viability at 5 µM [2]: 60.3 ± 1.38%
- viability at 10 µM [2]: 62.2 ± 0.75%
- viability at 20 µM [2]: 81.9 ± 2.94%
- inhibitory activity against NO production compared with curcumin [3]: better inhibitory activity
- The production of NO [3, 5]: 35.08 ± 2.53
- The production of NO [3, 6]: 16.57 ± 1.70
- The production of NO [3, 7]: 4.61 ± 0.29
- solubility [4]: 118 mg/mL (≈ 279 mM)

Structure (SMILES): COc1cc(O)ccc1/C=C/C(=O)CC(=O)/C=C/c1cc(CN(C)C)c(O)c(OC)c1 [Compound 9a]
- Cell viability ([1]; Dose 5 μM): 63.56 ± 2.88
- Cell viability ([1]; Dose 10 μM): 70.76 ± 3.98
- Cell viability ([1]; Dose 20 μM): 81.08 ± 2.61
- viability at 5 µM [2]: 56.9 ± 1.03%
- viability at 10 µM [2]: 60.9 ± 1.55%
- viability at 20 µM [2]: 70.2 ± 2.99%
- The production of NO [3, 5]: 36.91 ± 0.59
- The production of NO [3, 6]: 21.33 ± 0.19
- The production of NO [3, 7]: 11.29 ± 0.25
- solubility [4]: 167 mg/mL (≈ 393 mM)

Structure (SMILES): COc1cc(/C=C/C(=O)CC(=O)/C=C/c2ccc(O)cc2)cc(CN(C)C)c1O [Compound 10a]
- viability at 5 µM [1]: 54.9 ± 1.34%
- viability at 10 µM [1]: 64.7 ± 2%
- viability at 20 µM [1]: 84 ± 4.36%
- cell survival rate (anti-oxidant) [1]: 64%
- Cell viability ([2]; Dose 5 μM): 61.98 ± 2.45
- Cell viability ([2]; Dose 10 μM): 67.94 ± 4.69
- Cell viability ([2]; Dose 20 μM): 81.14 ± 3.72
- inhibitory activity against NO production compared with curcumin [3]: better inhibitory activity
- The production of NO [3, 5]: 24.20 ± 1.36
- The production of NO [3, 6]: 7.81 ± 0.85
- The production of NO [3, 7]: 3.91 ± 0.22
- inhibition at 15 µM ([3]; Mus musculus, at 15 μM, LPS-stimulated RAW264.7, read-out: inhibition rate on NO release): 92%
- solubility [4]: 335 mg/mL (≈ 848 mM)

Structure (SMILES): COc1ccc(/C=C/C(=O)CC(=O)/C=C/c2cc(CN(C)C)c(O)c(OC)c2)cc1O [Compound 11a]
- viability at 5 µM [1]: 61.5 ± 1.46%
- viability at 10 µM [1]: 73.7 ± 3.89%
- viability at 20 µM [1]: 97.3 ± 1.95%
- radiation protection capacity [2]: a certain degree of radiation protection capacity
- Cell viability ([2]; Dose 5 μM): 60.93 ± 1.64
- Cell viability ([2]; Dose 10 μM): 64.92 ± 0.58
- Cell viability ([2]; Dose 20 μM): 106.32 ± 7.58
- cell survival rate (radiation protection) ([2]; at 20 μM, irradiated PC 12): 106%
- inhibitory activity against NO production compared with curcumin [3]: better inhibitory activity
- The production of NO [3, 5]: 35.82 ± 1.34
- The production of NO [3, 6]: 15.68 ± 3.02
- The production of NO [3, 7]: 4.63 ± 0.40
- solubility [4]: 132 mg/mL (≈ 311 mM)

Structure (SMILES): COc1cc(/C=C/C(=O)CC(=O)/C=C/c2cc(CN(C)C)c(O)c(OC)c2)ccc1O [Compound 15a]
- viability at 5 µM [1]: 62.2 ± 2.53%
- viability at 10 µM [1]: 72.5 ± 2.02%
- viability at 20 µM [1]: 89.22 ± 0.36%
- inhibitory activity against NO production compared with curcumin [3]: better inhibitory activity
- The production of NO [3, 5]: 33.79 ± 2.90
- The production of NO [3, 6]: 17.01 ± 0.60
- The production of NO [3, 7]: 4.71 ± 0.18
- solubility [4]: 284 mg/mL (≈ 667 mM)

Reference: paper PMC11085442 (Molecules, 2024)
